According to patent US10294202B2, “Pyrrolidinones as herbicides” (FMC Corporation, priority 2013, dated 2019):

What was measured:
[1] = tested on: corn; assay: Test C pre-/postemergence herbicide test; assay type: in vivo, Zea mays; conditions: for Plant response rating (scale of 0 to 100), Corn: 250 g ai/ha
How it was run: (§1)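 Greenhouse plants scored visually against untreated controls 13–15 days after treatment, 0 = no effect, 100 = complete control. Test chemicals in a non-phytotoxic solvent with surfactant were applied either to soil (loam/sand) at planting or to foliage of 1- to 4-leaf plants, 2–18 cm tall.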

[2] = tested on: giant foxtail; assay: Test A pre-/postemergence herbicide test; assay type: in vivo, Setaria faberii
How it was run: (§2)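 Visual 0–100 ratings (100 = complete control) made about 10 days after treatment, greenhouse-held plants compared with untreated controls. Treatments: postemergence sprays on one- to two-leaf plants (2–10 cm tall) and preemergence directed soil sprays after planting in loam–sand, chemicals formulated in non-phytotoxic solvent containing surfactant.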

[3] = tested on: ryegrass, Italian; assay: Test C pre-/postemergence herbicide test; assay type: in vivo, Lolium multiflorum; conditions: for Plant response rating (scale of 0 to 100), Ryegrass, Italian: 250 g ai/ha
How it was run: as §1

[4] = tested on: barnyardgrass; assay: Test A pre-/postemergence herbicide test; assay type: in vivo, Echinochloa crus-galli
How it was run: as §2

[5] = tested on: waterhemp; assay: Test C pre-/postemergence herbicide test; assay type: in vivo, Amaranthus rudis; conditions: for Plant response rating (scale of 0 to 100), Waterhemp: 250 g ai/ha
How it was run: as §1

[6] = tested on: nutsedge, yellow; assay: Test C pre-/postemergence herbicide test; assay type: in vivo, Cyperus esculentus; conditions: for Plant response rating (scale of 0 to 100), Nutsedge, Yellow: 250 g ai/ha
How it was run: as §1

[7] = tested on: barnyardgrass; assay: Test C pre-/postemergence herbicide test; assay type: in vivo, Echinochloa crus-galli; conditions: for Plant response rating (scale of 0 to 100; 0 is no effect, 100 is complete control), Barnyardgrass: 250 g ai/ha
How it was run: as §1

[8] = tested on: lambsquarters; assay: Test C pre-/postemergence herbicide test; assay type: in vivo, Chenopodium album; conditions: for Plant response rating (scale of 0 to 100), Lambsquarters: 250 g ai/ha
How it was run: as §1

[9] = tested on: corn; assay: Test A pre-/postemergence herbicide test; assay type: in vivo, Zea mays
How it was run: as §2

[10] = tested on: ducksalad; assay: Test B flooded paddy test; assay type: in vivo, Heteranthera limosa; conditions: Flood, scale of 0 to 100 where 0 is no effect and 100 is complete control
How it was run: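 Paddy-water application at a 3 cm flood, young plants having two leaves. Water level maintained; greenhouse, 13–15 days; visual 0–100 control rating.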

[11] = tested on: soybean; assay: Test C pre-/postemergence herbicide test; assay type: in vivo, Glycine max; conditions: for Plant response rating (scale of 0 to 100), Soybean: 250 g ai/ha
How it was run: as §1

[12] = Preemergence, 31 g ai/ha, scale 0 to 100, 0 is no effect and 100 is complete control
[13] = Preemergence, 62 g ai/ha, scale 0 to 100 (0 no effect, 100 complete control)
[14] = Preemergence, 125 g ai/ha, scale 0 to 100 (0 no effect, 100 complete control)
[15] = Postemergence, 125 g ai/ha, 0 to 100 scale, 0 is no effect, 100 is complete control
[16] = Postemergence, 500 g ai/ha, 0 to 100 scale (0 no effect, 100 complete control)
[17] = Preemergence, 125 g ai/ha, 0 to 100 scale where 0 is no effect and 100 is complete control
[18] = preemergence, 500 g ai/ha, 0 to 100 scale, 0 is no effect and 100 is complete control
[19] = Postemergence, 1000 g ai/ha, 0 to 100 scale (0 no effect, 100 complete control)
[20] = Postemergence, 16 g ai/ha, scale 0 to 100 (0 no effect, 100 complete control)
[21] = Postemergence, 31 g ai/ha, scale 0 to 100 (0 no effect, 100 complete control)
[22] = Postemergence, 62 g ai/ha, scale 0 (no effect) to 100 (complete control)
[23] = Postemergence, 125 g ai/ha, scale 0 to 100 (0 no effect, 100 complete control)
[24] = Preemergence, 16 g ai/ha, scale 0 to 100

## O=C1NCC(c2cccc(C(F)(F)F)c2)C1C(=O)Nc1cccc(F)c1F (centres unmarked) [Compound 241]
[1]; [12]
  Corn plant response rating: 85
[1]; [13]
  Corn plant response rating: 65
[1]; [14]
  Plant response rating, Corn: 80
[1]; Preemergence
  Plant response rating (scale of 0 to 100), Corn: 90
[2]; [15]
  Plant response rating, Foxtail, Giant: 80
[2]; [16]
  Plant response rating, Foxtail, Giant: 90
[2]; [17]
  Plant response rating, Foxtail, Giant: 90
[2]; [18]
  Plant response rating, Foxtail, Giant: 90
[3]; [12]
  Ryegrass, Italian plant response rating: 20
[3]; [13]
  Ryegrass, Italian plant response rating: 20
[3]; [14]
  Plant response rating, Ryegrass, Italian: 30
[3]; Preemergence
  Plant response rating (scale of 0 to 100), Ryegrass, Italian: 55
[4]; [15]
  Plant response rating, Barnyardgrass: 80
[4]; [16]
  Plant response rating, Barnyardgrass: 90
[4]; [17]
  Plant response rating, Barnyardgrass: 80
[4]; [18]
  Plant response rating, Barnyardgrass: 90
[5]; [12]
  Waterhemp plant response rating: 25
[5]; [13]
  Waterhemp plant response rating: 40
[5]; [14]
  Plant response rating, Waterhemp: 45
[5]; Preemergence
  Plant response rating (scale of 0 to 100), Waterhemp: 60
[6]; [12]
  Nutsedge, Yellow plant response rating: 0
[6]; [13]
  Nutsedge, Yellow plant response rating: 0
[6]; [14]
  Plant response rating, Nutsedge, Yellow: 0
[6]; Preemergence
  Plant response rating (scale of 0 to 100), Nutsedge, Yellow: 0
[7]; [12]
  Barnyardgrass plant response rating: 90
[7]; Preemergence, 62 g ai/ha, scale 0 to 100
  Plant response rating, Barnyardgrass: 95
[7]; [14]
  Plant response rating, Barnyardgrass: 95
[7]; Preemergence
  Plant response rating (scale of 0 to 100; 0 is no effect, 100 is complete control), Barnyardgrass: 95
[8]; [12]
  Lambsquarters plant response rating: 0
[8]; [13]
  Lambsquarters plant response rating: 0
[8]; [14]
  Plant response rating, Lambsquarters: 10
[8]; Preemergence
  Plant response rating (scale of 0 to 100), Lambsquarters: 100
[9]; [15]
  Plant response rating, Corn: 50
[9]; [16]
  Plant response rating, Corn: 80
[9]; [17]
  Plant response rating, Corn: 20
[9]; [18]
  Plant response rating, Corn: 50
[10]; 250 g ai/ha
  Plant response rating, Ducksalad: 100
[10]; 1000 g ai/ha
  Plant response rating, Ducksalad: 100
[11]; [12]
  Soybean plant response rating: 0
[11]; [13]
  Soybean plant response rating: 0
[11]; [14]
  Plant response rating, Soybean: 0
[11]; Preemergence
  Plant response rating (scale of 0 to 100), Soybean: 0

## O=C(Nc1ccccc1F)C1C(=S)NCC1c1cccc(C(F)(F)F)c1 (centres unmarked) [Compound 274]
[1]; [12]
  Corn plant response rating: 0
[1]; [13]
  Corn plant response rating: 5
[1]; [14]
  Plant response rating, Corn: 10
[1]; Preemergence
  Plant response rating (scale of 0 to 100), Corn: 45
[2]; [19]
  Plant response rating, Foxtail, Giant: 90
[2]; preemergence, 1000 g ai/ha, 0 to 100 scale
  Plant response rating, Foxtail, Giant: 90
[3]; [12]
  Ryegrass, Italian plant response rating: 0
[3]; [13]
  Ryegrass, Italian plant response rating: 0
[3]; [14]
  Plant response rating, Ryegrass, Italian: 5
[3]; Preemergence
  Plant response rating (scale of 0 to 100), Ryegrass, Italian: 30
[4]; [19]
  Plant response rating, Barnyardgrass: 90
[4]; preemergence, 1000 g ai/ha, 0 to 100 scale (0 no effect, 100 complete control)
  Plant response rating, Barnyardgrass: 90
[5]; [12]
  Waterhemp plant response rating: 0
[5]; [13]
  Waterhemp plant response rating: 0
[5]; Preemergence
  Plant response rating (scale of 0 to 100), Waterhemp: 0
[6]; [12]
  Nutsedge, Yellow plant response rating: 0
[6]; [13]
  Nutsedge, Yellow plant response rating: 0
[6]; [14]
  Plant response rating, Nutsedge, Yellow: 0
[6]; Preemergence
  Plant response rating (scale of 0 to 100), Nutsedge, Yellow: 0
[7]; [12]
  Barnyardgrass plant response rating: 55
[7]; [13]
  Barnyardgrass plant response rating: 65
[7]; [14]
  Plant response rating, Barnyardgrass: 85
[7]; Preemergence
  Plant response rating (scale of 0 to 100; 0 is no effect, 100 is complete control), Barnyardgrass: 90
[8]; [13]
  Lambsquarters plant response rating: 0
[8]; Preemergence
  Plant response rating (scale of 0 to 100), Lambsquarters: 0
[9]; [19]
  Plant response rating, Corn: 70
[10]; 500 g ai/ha
  Plant response rating, Ducksalad: 35
[11]; [12]
  Soybean plant response rating: 0
[11]; [13]
  Soybean plant response rating: 0
[11]; [14]
  Plant response rating, Soybean: 5
[11]; Preemergence
  Plant response rating (scale of 0 to 100), Soybean: 0

## CN1CC(c2cccc(C(F)(F)F)c2)C(C(=O)Nc2ccccc2F)C1=O (centres unmarked) [Compound 277]
[1]; [20]
  Plant response rating, Corn: 0
[1]; [21]
  Plant response rating, Corn: 0
[1]; [22]
  Plant response rating, Corn: 20
[1]; [23]
  Plant response rating, Corn: 10
[1]; [12]
  Corn plant response rating: 25
[1]; [13]
  Corn plant response rating: 85
[1]; [14]
  Plant response rating, Corn: 90
[1]; [24]
  Plant response rating, Corn: 0
[2]; [15]
  Plant response rating, Foxtail, Giant: 90
[2]; [16]
  Plant response rating, Foxtail, Giant: 90
[2]; [17]
  Plant response rating, Foxtail, Giant: 90
[2]; [18]
  Plant response rating, Foxtail, Giant: 90
[3]; [20]
  Plant response rating, Ryegrass, Italian: 0
[3]; [21]
  Plant response rating, Ryegrass, Italian: 0
[3]; [22]
  Plant response rating, Ryegrass, Italian: 5
[3]; [23]
  Plant response rating, Ryegrass, Italian: 35
[3]; [12]
  Ryegrass, Italian plant response rating: 40
[3]; [13]
  Ryegrass, Italian plant response rating: 35
[3]; [14]
  Plant response rating, Ryegrass, Italian: 40
[3]; [24]
  Plant response rating, Ryegrass, Italian: 30
[4]; [15]
  Plant response rating, Barnyardgrass: 90
[4]; [16]
  Plant response rating, Barnyardgrass: 90
[4]; [17]
  Plant response rating, Barnyardgrass: 90
[4]; [18]
  Plant response rating, Barnyardgrass: 90
[5]; [20]
  Plant response rating, Waterhemp: 5
[5]; [21]
  Plant response rating, Waterhemp: 5
[5]; [22]
  Plant response rating, Waterhemp: 5
[5]; [23]
  Plant response rating, Waterhemp: 5
[5]; [12]
  Waterhemp plant response rating: 35
[5]; [13]
  Waterhemp plant response rating: 50
[5]; [14]
  Plant response rating, Waterhemp: 55
[5]; [24]
  Plant response rating, Waterhemp: 0
[6]; [20]
  Plant response rating, Nutsedge, Yellow: 0
[6]; [21]
  Plant response rating, Nutsedge, Yellow: 10
[6]; [22]
  Plant response rating, Nutsedge, Yellow: 0
[6]; [23]
  Plant response rating, Nutsedge, Yellow: 0
[6]; [12]
  Nutsedge, Yellow plant response rating: 0
[6]; [13]
  Nutsedge, Yellow plant response rating: 20
[6]; [14]
  Plant response rating, Nutsedge, Yellow: 20
[6]; [24]
  Plant response rating, Nutsedge, Yellow: 0
[7]; [20]
  Plant response rating, Barnyardgrass: 5
[7]; [21]
  Plant response rating, Barnyardgrass: 15
[7]; [22]
  Plant response rating, Barnyardgrass: 70
[7]; [23]
  Plant response rating, Barnyardgrass: 80
[7]; [12]
  Barnyardgrass plant response rating: 95
[7]; [13]
  Barnyardgrass plant response rating: 98
[7]; [14]
  Plant response rating, Barnyardgrass: 98
[7]; [24]
  Plant response rating, Barnyardgrass: 95
[8]; [20]
  Plant response rating, Lambsquarters: 25
[8]; [21]
  Plant response rating, Lambsquarters: 30
[8]; [22]
  Plant response rating, Lambsquarters: 40
[8]; [23]
  Plant response rating, Lambsquarters: 40
[8]; [12]
  Lambsquarters plant response rating: 20
[8]; [13]
  Lambsquarters plant response rating: 75
[8]; [14]
  Plant response rating, Lambsquarters: 80
[8]; [24]
  Plant response rating, Lambsquarters: 0
[9]; [15]
  Plant response rating, Corn: 90
[9]; [16]
  Plant response rating, Corn: 90
[10]; 500 g ai/ha
  Plant response rating, Ducksalad: 100
[11]; [20]
  Plant response rating, Soybean: 0
[11]; [21]
  Plant response rating, Soybean: 0
[11]; [22]
  Plant response rating, Soybean: 0
[11]; [23]
  Plant response rating, Soybean: 0
[11]; [12]
  Soybean plant response rating: 0
[11]; [13]
  Soybean plant response rating: 0
[11]; [14]
  Plant response rating, Soybean: 5
[11]; [24]
  Plant response rating, Soybean: 0
